Tested on: male SD rats
Test: Measurement of antianxiety activity using the elevated plus-maze
Format: in vivo, rat
Conditions: 3 and 10 mg/kg, 30 minutes after administration, 5 minutes period
Description: Two arms (open and closed) of equal width and length (50 cm×10 cm), which crossed at a right angle to form a plus maze, were elevated to a height 50 cm above the ground level. […] Lighting on both ends of the open arm was maintained at constant illumination. Thirty minutes after administration of various doses of test-compounds (5 mL/kg), male SD rats were placed in the center of the plus maze. The time spent(s) in the open arms and the number of entries into the respective arms were measured within a 5 minutes period. The investigation personnel for measuring the indexes positioned at a fixed location during the course of the experiment.

Q: How did the “time spent in the open arms” value (FIG. 1) turn out when `CCC(CC)Nc1c2c(nc3c(-c4ccc(OC)cc4Cl)c(C)nn13)CCC2.Cl` [Example 2(78), 8-(3-pentylamino)-2-methyl-3-(2-chloro-4-methoxyphenyl)-6,7-dihydro-5H-cyclopenta[d]pyrazolo[1,5-a]pyrimidine hydrochloride] was run?
A: extend significantly

Q: And the “number of entries into the open arms” value (FIG. 2)?
A: increased significantly
